# Measurements from PubChem BioAssay (NCI).
#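 Dose response: 5 concentrations. Exposure: 48 h. Format: 96-well plates. Endpoint: linear interpolation; highest concentration if not reached. GI50 = concentration required for 50% inhibition of growth. TGI marks complete inhibition of growth.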
# Assays:
# Experiment in all cases: NCI tumour cell line growth inhibition, 48 h
# 786-0 renal = test system: 786-0 renal
# A498 renal = test system: A498 renal
# A549 NSCLC = test system: A549 NSCLC
# ACHN renal = test system: ACHN renal
# BT-549 breast = test system: BT-549 breast
# CAKI-1 renal = test system: CAKI-1 renal
# CCRF-CEM leukemia = test system: CCRF-CEM leukemia
# COLO 205 colon = test system: COLO 205 colon
# DU-145 prostate = test system: DU-145 prostate
# EKVX NSCLC = test system: EKVX NSCLC
# HCC-2998 colon = test system: HCC-2998 colon
# HCT-116 colon = test system: HCT-116 colon
# HCT-15 colon = test system: HCT-15 colon
# HOP-62 NSCLC = test system: HOP-62 NSCLC
# HOP-92 NSCLC = test system: HOP-92 NSCLC
# HS 578T breast = test system: HS 578T breast
# HT29 colon = test system: HT29 colon
# IGROV1 ovarian = test system: IGROV1 ovarian
# K-562 leukemia = test system: K-562 leukemia
# KM12 colon = test system: KM12 colon
# LOX IMVI melanoma = test system: LOX IMVI melanoma
# M14 melanoma = test system: M14 melanoma
# MCF7 breast = test system: MCF7 breast
# MDA-MB-231 breast = test system: MDA-MB-231 breast
# MDA-MB-435 = test system: MDA-MB-435
# MOLT-4 leukemia = test system: MOLT-4 leukemia
# NCI-H226 lung = test system: NCI-H226 lung
# NCI-H23 lung = test system: NCI-H23 lung
# NCI-H460 lung = test system: NCI-H460 lung
# NCI-H522 lung = test system: NCI-H522 lung
# OVCAR-3 ovarian = test system: OVCAR-3 ovarian
# OVCAR-4 ovarian = test system: OVCAR-4 ovarian
# OVCAR-5 ovarian = test system: OVCAR-5 ovarian
# OVCAR-8 ovarian = test system: OVCAR-8 ovarian
# PC-3 prostate = test system: PC-3 prostate
# RPMI-8226 leukemia = test system: RPMI-8226 leukemia
# RXF 393 renal = test system: RXF 393 renal
# SF-268 CNS = test system: SF-268 CNS
# SF-295 CNS = test system: SF-295 CNS
# SF-539 CNS = test system: SF-539 CNS
# SK-MEL-2 melanoma = test system: SK-MEL-2 melanoma
# SK-MEL-28 melanoma = test system: SK-MEL-28 melanoma
# SK-MEL-5 melanoma = test system: SK-MEL-5 melanoma
# SK-OV-3 ovarian = test system: SK-OV-3 ovarian
# SN12C renal = test system: SN12C renal
# SNB-19 CNS = test system: SNB-19 CNS
# SNB-75 CNS = test system: SNB-75 CNS
# SR leukemia = test system: SR leukemia
# SW-620 colon = test system: SW-620 colon
# T-47D breast = test system: T-47D breast
# TK-10 renal = test system: TK-10 renal
# U251 CNS = test system: U251 CNS
# UACC-257 melanoma = test system: UACC-257 melanoma
# UACC-62 melanoma = test system: UACC-62 melanoma
# UO-31 renal = test system: UO-31 renal
# MALME-3M melanoma = test system: MALME-3M melanoma
# NCI/ADR-RES ovarian = test system: NCI/ADR-RES ovarian
smiles,measurement,setting,value
COc1ccc(C2=C(c3cc(OC)c(OC)c(OC)c3)C(=O)OC2)cc1OC,GI50,786-0 renal,0.0522 µM
same,TGI,786-0 renal,> 62.3 µM
same,GI50,A498 renal,0.134 µM
same,TGI,A498 renal,21.3 µM
same,GI50,A549 NSCLC,0.25 µM
same,TGI,A549 NSCLC,> 29.1 µM
same,GI50,ACHN renal,67.5 µM
same,TGI,ACHN renal,> 100 µM
same,GI50,BT-549 breast,12.1 µM
same,TGI,BT-549 breast,97.9 µM
same,GI50,CAKI-1 renal,< 0.01 µM
same,TGI,CAKI-1 renal,1.24 µM
same,GI50,CCRF-CEM leukemia,< 0.01 µM
same,TGI,CCRF-CEM leukemia,> 100 µM
same,GI50,COLO 205 colon,0.295 µM
same,TGI,COLO 205 colon,0.941 µM
same,GI50,DU-145 prostate,0.821 µM
same,TGI,DU-145 prostate,> 100 µM
same,GI50,EKVX NSCLC,34.5 µM
same,TGI,EKVX NSCLC,> 100 µM
same,GI50,HCC-2998 colon,0.025 µM
same,TGI,HCC-2998 colon,0.299 µM
same,GI50,HCT-116 colon,0.0548 µM
same,TGI,HCT-116 colon,55.5 µM
same,GI50,HCT-15 colon,0.0354 µM
same,TGI,HCT-15 colon,> 100 µM
same,GI50,HOP-62 NSCLC,0.0465 µM
same,TGI,HOP-62 NSCLC,> 100 µM
same,GI50,HOP-92 NSCLC,6.65 µM
same,TGI,HOP-92 NSCLC,> 100 µM
same,GI50,HS 578T breast,0.123 µM
same,TGI,HS 578T breast,39.1 µM
same,GI50,HT29 colon,0.0256 µM
same,TGI,HT29 colon,> 24.3 µM
same,GI50,IGROV1 ovarian,0.353 µM
same,TGI,IGROV1 ovarian,> 55.6 µM
same,GI50,K-562 leukemia,< 0.0153 µM
same,TGI,K-562 leukemia,> 100 µM
same,GI50,KM12 colon,< 0.0164 µM
same,GI50,LOX IMVI melanoma,0.428 µM
same,TGI,LOX IMVI melanoma,> 49.4 µM
same,GI50,M14 melanoma,0.0231 µM
same,TGI,M14 melanoma,1.76 µM
same,GI50,MCF7 breast,< 0.0187 µM
same,TGI,MCF7 breast,> 100 µM
same,GI50,MDA-MB-231 breast,0.576 µM
same,TGI,MDA-MB-231 breast,> 75.9 µM
same,GI50,MDA-MB-435,< 0.01 µM
same,TGI,MDA-MB-435,0.0109 µM
same,GI50,MOLT-4 leukemia,0.0466 µM
same,TGI,MOLT-4 leukemia,> 100 µM
same,GI50,NCI-H226 lung,6.06 µM
same,TGI,NCI-H226 lung,> 28.5 µM
same,GI50,NCI-H23 lung,0.0251 µM
same,TGI,NCI-H23 lung,13.4 µM
same,GI50,NCI-H460 lung,< 0.0222 µM
same,TGI,NCI-H460 lung,> 42.6 µM
same,GI50,NCI-H522 lung,< 0.0189 µM
same,TGI,NCI-H522 lung,> 46.7 µM
same,GI50,OVCAR-3 ovarian,< 0.0112 µM
same,TGI,OVCAR-3 ovarian,< 0.0206 µM
same,GI50,OVCAR-4 ovarian,2.65 µM
same,TGI,OVCAR-4 ovarian,> 100 µM
same,GI50,OVCAR-5 ovarian,0.379 µM
same,TGI,OVCAR-5 ovarian,> 48.4 µM
same,GI50,OVCAR-8 ovarian,0.163 µM
same,GI50,PC-3 prostate,< 0.0151 µM
same,TGI,PC-3 prostate,> 100 µM
same,GI50,RPMI-8226 leukemia,< 0.0199 µM
same,TGI,RPMI-8226 leukemia,0.961 µM
same,GI50,RXF 393 renal,0.0146 µM
same,TGI,RXF 393 renal,> 100 µM
same,GI50,SF-268 CNS,0.0906 µM
same,TGI,SF-268 CNS,30.5 µM
same,GI50,SF-295 CNS,< 0.01 µM
same,TGI,SF-295 CNS,0.0217 µM
same,GI50,SF-539 CNS,0.301 µM
same,TGI,SF-539 CNS,4.1 µM
same,GI50,SK-MEL-2 melanoma,0.0313 µM
same,TGI,SK-MEL-2 melanoma,> 100 µM
same,GI50,SK-MEL-28 melanoma,47.6 µM
same,TGI,SK-MEL-28 melanoma,> 100 µM
same,GI50,SK-MEL-5 melanoma,0.0182 µM
same,TGI,SK-MEL-5 melanoma,1.5 µM
same,GI50,SK-OV-3 ovarian,8.27 µM
same,TGI,SK-OV-3 ovarian,> 100 µM
same,GI50,SN12C renal,0.567 µM
same,TGI,SN12C renal,73.1 µM
same,GI50,SNB-19 CNS,0.891 µM
same,TGI,SNB-19 CNS,> 100 µM
same,GI50,SNB-75 CNS,> 100 µM
same,TGI,SNB-75 CNS,> 100 µM
same,GI50,SR leukemia,< 0.01 µM
same,GI50,SW-620 colon,0.105 µM
same,TGI,SW-620 colon,> 100 µM
same,GI50,T-47D breast,54 µM
same,TGI,T-47D breast,> 100 µM
same,GI50,TK-10 renal,< 0.0283 µM
same,TGI,TK-10 renal,1.91 µM
same,GI50,U251 CNS,0.187 µM
same,TGI,U251 CNS,> 100 µM
same,GI50,UACC-257 melanoma,> 38.6 µM
same,TGI,UACC-257 melanoma,> 81.1 µM
same,GI50,UACC-62 melanoma,0.336 µM
same,TGI,UACC-62 melanoma,> 79.5 µM
same,GI50,UO-31 renal,0.284 µM
same,TGI,UO-31 renal,> 50.9 µM
COc1cc(/C=C/C(=O)OC[C@H](Br)[C@H](OC(C)=O)c2ccc3c(c2)OCO3)cc(OC)c1OC,TGI,786-0 renal,> 100 µM
same,TGI,A498 renal,> 100 µM
same,TGI,A549 NSCLC,> 100 µM
same,TGI,ACHN renal,> 100 µM
same,TGI,BT-549 breast,> 100 µM
same,TGI,CAKI-1 renal,> 100 µM
same,TGI,CCRF-CEM leukemia,> 100 µM
same,TGI,COLO 205 colon,> 100 µM
same,TGI,DU-145 prostate,> 100 µM
same,TGI,EKVX NSCLC,> 100 µM
same,TGI,HCC-2998 colon,> 100 µM
same,TGI,HCT-116 colon,> 100 µM
same,TGI,HCT-15 colon,> 100 µM
same,TGI,HOP-62 NSCLC,> 100 µM
same,TGI,HOP-92 NSCLC,> 100 µM
same,TGI,HT29 colon,> 100 µM
same,TGI,IGROV1 ovarian,> 100 µM
same,TGI,K-562 leukemia,> 100 µM
same,TGI,KM12 colon,> 100 µM
same,TGI,LOX IMVI melanoma,> 100 µM
same,TGI,M14 melanoma,> 100 µM
same,TGI,MALME-3M melanoma,> 100 µM
same,TGI,MCF7 breast,> 100 µM
same,TGI,MDA-MB-231 breast,> 100 µM
same,TGI,MDA-MB-435,> 100 µM
same,TGI,MOLT-4 leukemia,> 100 µM
same,TGI,NCI-H226 lung,> 100 µM
same,TGI,NCI-H23 lung,> 100 µM
same,TGI,NCI-H522 lung,> 100 µM
same,TGI,NCI/ADR-RES ovarian,> 100 µM
same,TGI,OVCAR-3 ovarian,> 100 µM
same,TGI,OVCAR-4 ovarian,> 100 µM
same,TGI,OVCAR-5 ovarian,> 100 µM
same,TGI,OVCAR-8 ovarian,> 100 µM
same,TGI,PC-3 prostate,> 100 µM
same,TGI,RPMI-8226 leukemia,> 100 µM
same,TGI,RXF 393 renal,> 100 µM
same,TGI,SF-268 CNS,> 100 µM
same,TGI,SF-295 CNS,> 100 µM
same,TGI,SF-539 CNS,> 100 µM
same,TGI,SK-MEL-2 melanoma,> 100 µM
same,TGI,SK-MEL-28 melanoma,> 100 µM
same,TGI,SK-MEL-5 melanoma,> 100 µM
same,TGI,SK-OV-3 ovarian,> 100 µM
same,TGI,SN12C renal,> 100 µM
same,TGI,SNB-19 CNS,> 100 µM
same,TGI,SR leukemia,> 100 µM
same,TGI,SW-620 colon,> 100 µM
same,TGI,T-47D breast,> 100 µM
same,TGI,TK-10 renal,> 100 µM
same,TGI,U251 CNS,> 100 µM
same,TGI,UACC-257 melanoma,> 100 µM
same,TGI,UACC-62 melanoma,> 100 µM
same,TGI,UO-31 renal,> 100 µM
